Results from ChEMBL document CHEMBL3271983, “Potential antitumor agents. 26. Anionic congeners of the 9-anilinoacridines” (J Med Chem, 1978).

How the values were obtained:
physchem [1] = assay: physchem
Description: Dissociation constant, basic pKa of the compound by UV spectrophotometry

physchem [2] = assay: physchem; remark: listed apart in the source
Description: Dissociation constant, acidic pKa of the compound by UV spectrophotometry

| pKa (physchem [1]) | pKa (physchem [2]) | SMILES |
| --- | --- | --- |
| 7.17 |  | O=C(O)/C=C/c1ccc(Nc2c3ccccc3nc3ccccc23)cc1 |
| 7.92 |  | O=C(O)Cc1ccc(Nc2c3ccccc3nc3ccccc23)cc1 |
| 3.82 |  | COc1cc(NS(C)(=O)=O)ccc1Cc1c2ccc([N+](=O)[O-])cc2nc2cc([N+](=O)[O-])ccc12 |
| 7.64 |  | COC(=O)Nc1ccc(Cc2c3ccccc3nc3ccccc23)cc1 |
| 6.87 |  | O=S(=O)(O)c1ccc(Nc2c3ccccc3nc3ccccc23)cc1 |
| 7.42 |  | CC(=O)Nc1ccc2c(Nc3ccc(C(=O)O)cc3)c3ccccc3nc2c1 |
| 5.58 |  | O=[N+]([O-])c1ccc(Nc2c3ccccc3nc3ccccc23)cc1 |
| 7.77 |  | CNC(=O)Nc1ccc(Cc2c3ccccc3nc3ccccc23)cc1 |
| 7.72 |  | Cc1ccc(Cc2c3ccccc3nc3ccccc23)cc1 |
| 6.21 |  | COC(=O)c1ccc(Nc2c3ccccc3nc3ccccc23)cc1 |
| 7.34 |  | CC(=O)Nc1ccc2c(Nc3ccc(NS(C)(=O)=O)cc3)c3ccccc3nc2c1 |
| 6.09 |  | COc1cc(NS(C)(=O)=O)ccc1Cc1c2c(nc3ccccc13)C(=N)CC=C2 |
| 7.43 |  | COc1cc(NS(C)(=O)=O)ccc1Nc1c2ccccc2nc2ccccc12 [AMSACRINE] |
| 7.43 |  | NC(=O)Cc1ccc(Nc2c3ccccc3nc3ccccc23)cc1 |
| 7.09 |  | O=S(=O)(Nc1ccc(Cc2c3ccccc3nc3ccccc23)cc1)c1ccccc1 |
| 5.93 |  | N#Cc1ccc(Cc2c3ccccc3nc3ccccc23)cc1 |
| 8.19 |  | O=C(O)COc1ccc(Nc2c3ccccc3nc3ccccc23)cc1 |
| 8.36 |  | Nc1ccc(Cc2c3ccccc3nc3ccccc23)cc1 |
| 6.12 |  | CC(=O)c1ccc(Cc2c3ccccc3nc3ccccc23)cc1 |
| 7.41 |  | COc1cc(C(=O)O)ccc1Nc1c2ccccc2nc2ccccc12 |
| 7.51 |  | CC(=O)Nc1ccc(Cc2c3ccccc3nc3ccccc23)cc1 |
| 7.43 |  | NS(=O)(=O)CCc1ccc(Nc2c3ccccc3nc3ccccc23)cc1 |
| 5.72 |  | COc1cc(NS(C)(=O)=O)ccc1Cc1c2ccccc2nc2cc([N+](=O)[O-])ccc12 |
| 8.9 |  | Nc1ccc2c(Nc3ccc(C(=O)O)cc3)c3ccccc3nc2c1 |

| pKa (physchem [1]) | pKa (physchem [2]) | SMILES |
| --- | --- | --- |
| 6.12 |  | CS(=O)(=O)Nc1ccc(Nc2c3ccccc3nc3c(C(N)=O)cccc23)cc1 |
| 6.85 |  | CS(=O)(=O)Nc1cccc(Nc2c3ccccc3nc3ccccc23)c1 |
| 7.46 |  | c1ccc(Cc2c3ccccc3nc3ccccc23)cc1 |
| 7.06 |  | Clc1ccc(Cc2c3ccccc3nc3ccccc23)cc1 |
| 5.53 |  | COc1cc(NS(C)(=O)=O)ccc1Cc1c2c(nc3ccccc13)CC(=N)C=C2 |
| 7.17 | 4.2 | O=C(O)c1ccc(Nc2c3ccccc3nc3ccccc23)cc1 |
| 7.94 |  | COc1ccc(Cc2c3ccccc3nc3ccccc23)cc1 |
| 7 |  | Brc1ccc(Cc2c3ccccc3nc3ccccc23)cc1 |
| 7.82 |  | O=C(O)Cc1cccc(Nc2c3ccccc3nc3ccccc23)c1 |
| 7.63 |  | NC(=O)CCc1ccc(Nc2c3ccccc3nc3ccccc23)cc1 |
| 6.95 |  | CN(c1ccc(Nc2c3ccccc3nc3ccccc23)cc1)S(C)(=O)=O |
| 8.12 |  | O=C(O)Cc1ccccc1Nc1c2ccccc2nc2ccccc12 |
| 7.15 |  | Cc1cccc2c(Nc3ccc(NS(C)(=O)=O)cc3)c3ccccc3nc12 |
| 7.05 |  | NS(=O)(=O)Cc1ccc(Nc2c3ccccc3nc3ccccc23)cc1 |
| 7.28 |  | O=C(O)c1ccccc1Nc1c2ccccc2nc2ccccc12 |
| 6.11 |  | NS(=O)(=O)c1ccc(Nc2c3ccccc3nc3ccccc23)cc1 |
| 7.91 |  | O=C(O)CCc1ccc(Nc2c3ccccc3nc3ccccc23)cc1 |
| 7.64 |  | O=S(=O)(O)Cc1ccc(Nc2c3ccccc3nc3ccccc23)cc1 |
| 7.62 |  | O=C(O)c1cccc(Nc2c3ccccc3nc3ccccc23)c1 |
| 6.47 |  | NC(=O)c1ccc(Nc2c3ccccc3nc3ccccc23)cc1 |
| 7 |  | CS(=O)(=O)Nc1ccc(Nc2cc(N=[N+]=[N-])nc3ccccc23)cc1 |
| 6.52 |  | CS(=O)(=O)Nc1ccc(Nc2c3ccccc3nc3cc(I)ccc23)cc1 |
| 7.77 |  | O=S(=O)(O)CCc1ccc(Nc2c3ccccc3nc3ccccc23)cc1 |
